From patent US9447044B2, “Thioaryl derivatives as GPR120 agonists” (LG LIFE SCIENCES LTD., priority 2012, dated 2016)

target: T1, hGPR120 (Homo sapiens, UniProt Q5NUL3); experiment: Measurement of activity of GPR120 agonist (cell-based assay), calcium fluorescence; conditions: CHO-K1 cells expressing Ga16 and hGPR120; Calcium 5 dye fluorescence; activity class
T1 construct: expressed in transfected cells; host or cells: CHO-K1
T1 sequence (Q5NUL3 1-361): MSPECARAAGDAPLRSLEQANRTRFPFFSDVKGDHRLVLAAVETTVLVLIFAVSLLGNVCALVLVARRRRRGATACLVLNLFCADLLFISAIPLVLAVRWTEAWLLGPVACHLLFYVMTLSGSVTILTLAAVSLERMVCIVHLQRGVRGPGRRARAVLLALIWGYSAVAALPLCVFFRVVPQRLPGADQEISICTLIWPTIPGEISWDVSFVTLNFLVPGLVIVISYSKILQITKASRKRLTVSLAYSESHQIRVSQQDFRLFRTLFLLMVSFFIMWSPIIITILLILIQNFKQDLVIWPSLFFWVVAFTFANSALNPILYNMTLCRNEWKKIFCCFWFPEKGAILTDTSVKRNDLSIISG
In short: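 CHO-K1 cells co-expressing Gα16 and hGPR120, loaded with Calcium 5 dye for 1 h at 37° C, received serially diluted agonists (final 0.5% DMSO). Fluorescence (Ex 485/Em 525 nm) was expressed as relative percent over 0.1% DMSO-only wells; activity binned as A >20 μM, B 20–2 μM, C 2–0.2 μM, D <0.2 μM.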

Question: Which EC50 does the source give for `O=C(O)CCc1ccc(OCc2cccc(SC3CCCC3)n2)c(Cl)c1` [Example 143, 3-[3-chloro-4-(6-cyclopentylsulfanyl-pyridin-2-ylmethoxy)-phenyl]-propionic acid] here?
Answer: < 0.2 µM

Question: `CCCSc1ncccc1COc1ccc(CCC(=O)O)cc1F` [Example 144, 3-[3-fluoro-4-(2-propylsulfanyl-pyridin-3-ylmethoxy)-phenyl]-propionic acid] was tested. Which EC50 did it give?
Answer: < 0.2 µM

Question: Which EC50 does the source give for `O=C(O)CCc1ccc(OCc2cccnc2SC2CCC2)c(F)c1` [Example 145, 3-[4-(2-cyclobutylsulfanyl-pyridin-3-ylmethoxy)-3-fluoro-phenyl]-propionic acid] here?
Answer: < 0.2 µM

Question: With `O=C(O)CCc1ccc(OCc2cccnc2SC2CCCC2)c(F)c1` [Example 146, 3-[4-(2-cyclopentylsulfanyl-pyridin-3-ylmethoxy)-3-fluoro-phenyl]-propionic acid] as the compound, how does the EC50 read?
Answer: < 0.2 µM

Question: With `O=C(O)CCc1ccc(OCc2cccc(SC3CCC3)n2)c(F)c1` [Example 148, 3-[4-(6-cyclobutylsulfanyl-pyridin-2-ylmethoxy)-3-fluoro-phenyl]-propionic acid] as the compound, how does the EC50 read?
Answer: < 0.2 µM

Question: `CC(C)Sc1cccc(COc2ccc(CCC(=O)O)cc2F)n1` [Example 149, 3-[3-fluoro-4-(6-isopropylsulfanyl-pyridin-2-ylmethoxy)-phenyl]-propionic acid] was tested. Which EC50 did it give?
Answer: < 0.2 µM

Question: Which EC50 does the source give for `O=C(O)CCc1ccc(OCc2cccc(SC3CCCC3)n2)c(F)c1` [Example 150, 3-[4-(6-cyclopentylsulfanyl-pyridin-2-ylmethoxy)-3-fluoro-phenyl]-propionic acid] here?
Answer: < 0.2 µM

Question: For `O=C(O)CCc1ccc(OCc2cccc(SCC3CC3)n2)c(F)c1` [Example 151, 3-[4-(6-cyclopropylmethylsulfanyl-pyridin-2-ylmethoxy)-3-fluoro-phenyl]-propionic acid], which EC50 is on record?
Answer: < 0.2 µM

Question: `CC(C)Sc1cccc(COc2c(F)cc(C3CC3C(=O)O)cc2F)n1` (centres unmarked) [Example 152, 2-[3,5-difluoro-4-(6-isopropylsulfanyl-pyridin-2-ylmethoxy)-phenyl]-cyclopropane carboxylic acid] was tested. Which EC50 did it give?
Answer: < 0.2 µM

Question: Which EC50 does the source give for `O=C(O)C1CC1c1cc(F)c(OCc2cccc(SCC3CC3)n2)c(F)c1` (centres unmarked) [Example 153, 2-[4-(6-cyclopropylmethylsulfanyl-pyridin-2-ylmethoxy)-3,5-difluoro-phenyl]-cyclopropane carboxylic acid] here?
Answer: < 0.2 µM

Question: `O=C(O)C1CC1c1cc(F)c(OCc2cccc(SC3CCC3)n2)c(F)c1` (centres unmarked) [Example 155, 2-[4-(6-cyclobutylsulfanyl-pyridin-2-ylmethoxy)-3,5-difluoro-phenyl]-cyclopropane carboxylic acid] was tested. Which EC50 did it give?
Answer: < 0.2 µM

Question: For `O=C(O)CCc1ccc(OCc2cccnc2SCC2CC2)c(Cl)c1` [Example 157, 3-[3-chloro-4-(2-cyclopropylmethylsulfanyl-pyridin-3-ylmethoxy)-phenyl]-propionic acid], which EC50 is on record?
Answer: < 0.2 µM

Question: With `O=C(O)CCc1ccc(OCc2cccnc2SC2CCC2)c(Cl)c1` [Example 158, 3-[3-chloro-4-(2-cyclobutylsulfanyl-pyridin-3-ylmethoxy)-phenyl]-propionic acid] as the compound, how does the EC50 read?
Answer: < 0.2 µM

Question: `O=C(O)CCc1ccc(OCc2cccc(SC3CCC3)n2)c(Cl)c1` [Example 159, 3-[3-chloro-4-(6-cyclobutylsulfanyl-pyridin-2-ylmethoxy)-phenyl]-propionic acid] was tested. Which EC50 did it give?
Answer: < 0.2 µM

Question: Which EC50 does the source give for `Cc1ccc(COc2ccc(CCC(=O)O)cc2Cl)c(SC2CCCC2)n1` [Example 161, 3-[3-chloro-4-(2-cyclopentylsulfanyl-6-methyl-pyridin-3-ylmethoxy)-phenyl]-propionic acid] here?
Answer: 0.2 to 2 µM

Question: `CC(C)Sc1ncccc1COc1ccc(C2CC2C(=O)O)cc1F` (centres unmarked) [Example 162, 2-[3-fluoro-4-(2-isopropylsulfanyl-pyridin-3-ylmethoxy)-phenyl]-cyclopropane carboxylic acid] was tested. Which EC50 did it give?
Answer: < 0.2 µM

Question: `O=C(O)C1CC1c1ccc(OCc2cccc(SCC3CC3)n2)c(F)c1` (centres unmarked) [Example 170, 2-[4-(6-cyclopropylmethylsulfanyl-pyridin-2-ylmethoxy)-3-fluoro-phenyl]-cyclopropane carboxylic acid] was tested. Which EC50 did it give?
Answer: < 0.2 µM

Question: Which EC50 does the source give for `O=C(O)CCc1ccc(NCc2cccnc2SC2CCCC2)cc1` [Example 171, 3-{4-[(2-cyclopentylsulfanyl-pyridin-3-ylmethyl)-amino]-phenyl]-propionic acid] here?
Answer: 0.2 to 2 µM

Question: `O=C(O)CCc1ccc(NCc2cccc(SC3CCCC3)n2)cc1` [Example 172, 3-{4-[(6-cyclopentylsulfanyl-pyridin-2-ylmethyl)-amino]-phenyl]-propionic acid] was tested. Which EC50 did it give?
Answer: 2 to 20 µM

Question: With `O=C(O)CCc1ccc(OCc2cccnc2SC2CCCC2)cc1F` [Example 173] as the compound, how does the EC50 read?
Answer: < 0.2 µM

Question: Which EC50 does the source give for `O=C(O)C1CC1c1ccc(OCc2cccnc2SC2CCCC2)cc1F` (centres unmarked) [Example 174] here?
Answer: 0.2 to 2 µM

Question: For `O=C(O)CCc1ccc(OCc2cccnc2SC2CCC2)cc1F` [Example 175], which EC50 is on record?
Answer: 0.2 to 2 µM

Question: With `O=C(O)CCc1ccc(OCc2cccc(SC3CCCC3)n2)cc1F` [Example 177] as the compound, how does the EC50 read?
Answer: 0.2 to 2 µM

Question: For `O=C(O)CCc1ccc(OCc2cccnc2SCC2CC2)cc1F` [Example 178], which EC50 is on record?
Answer: 0.2 to 2 µM

Question: How did the EC50 turn out when `O=C(O)CCc1ccc(OCc2cccc(SCC3CC3)n2)cc1F` [Example 179] was run?
Answer: 0.2 to 2 µM

Question: `O=C(O)CCc1ccc(OCc2cccnc2SC2CCC2)cc1` [Example 180] was tested. Which EC50 did it give?
Answer: 0.2 to 2 µM

Question: How did the EC50 turn out when `O=C(O)CCc1ccc(OCc2cccc(SC3CCC3)n2)cc1` [Example 181] was run?
Answer: < 0.2 µM

Question: How did the EC50 turn out when `O=C(O)CCc1ccc(OCc2cccnc2SCC2CC2)cc1` [Example 182] was run?
Answer: < 0.2 µM

Question: `O=C(O)CCc1ccc(OCc2cccc(SCC3CC3)n2)cc1` [Example 183] was tested. Which EC50 did it give?
Answer: 0.2 to 2 µM

Question: `Cc1ccc(COc2ccc(CCC(=O)O)cc2)c(SC2CCCC2)n1` [Example 184] was tested. Which EC50 did it give?
Answer: 0.2 to 2 µM

same assay, conditions: CHO-K1 cells expressing Ga16 and hGPR120; Calcium 5 dye fluorescence; numeric value

Question: `O=C(O)CCc1ccc(OCc2cccc(SCC3CC3)n2)c(Cl)c1` [Example 142, 3-[3-chloro-4-(6-cyclopropylmethylsulfanyl-pyridin-2-ylmethoxy)-phenyl]-propionic acid] was tested. Which EC50 did it give?
Answer: 0.011 µM

Question: `O=C(O)CCc1ccc(OCc2cccnc2SCC2CC2)c(F)c1` [Example 147, 3-[4-(2-cyclopropylmethylsulfanyl-pyridin-3-ylmethoxy)-3-fluoro-phenyl]-propionic acid] was tested. Which EC50 did it give?
Answer: 0.054 µM

Question: How did the EC50 turn out when `Cc1ccc(COc2ccc(CCC(=O)O)cc2Cl)c(SC(C)C)n1` [Example 160, 3-[3-chloro-4-(2-isopropylsulfanyl-6-methyl-pyridin-3-ylmethoxy)-phenyl]-propionic acid] was run?
Answer: 0.202 µM

Question: `O=C(O)CCc1ccc(OCc2cccc(SC3CCC3)n2)cc1F` [Example 176] was tested. Which EC50 did it give?
Answer: 0.176 µM

Question: For `Cc1ccc(COc2ccc(CCC(=O)O)cc2)c(SC(C)C)n1` [Example 185], which EC50 is on record?
Answer: 0.441 µM
